From patent US20080200467A1, “SOLUBLE EPOXIDE HYDROLASE INHIBITORS” (Arete Therapeutics, Inc., priority 2006, published 2008)

Test system: soluble epoxide hydrolase (sEH)
Experiment: Fluorescent Assay for Mouse and Human Soluble Epoxide Hydrolase (CMNPC substrate)
Assay type: biochemical
Excerpt: Fluorescent Assay for Mouse and Human Soluble Epoxide Hydrolase Recombinant mouse sEH (MsEH) and human sEH (HsEH) were produced in a baculovirus expression system as previously reported. Grant et al., J. Biol. Chem., 268:17628-17633 (1993); Beetham et al., Arch. Biochem. Biophys., 305:197-201 (1993). The expressed proteins were purified from cell lysate by affinity chromatography. Wixtrom et al., Anal. Biochem., 169:71-80 (1988). Protein concentration was quantified using the Pierce BCA assay using bovine serum albumin as the calibrating standard. The preparations were at least 97% pure as judged by SDS-PAGE and scanning densitometry. They contained no detectable esterase or glutathione transferase activity which can interfere with the assay. The assay was also evaluated with similar results in crude cell lysates or homogenate of tissues. The IC50s for each inhibitor were according to the following procedure: [drawing 218] […] Jones P. D. et. al.; Analytical Biochemistry 2005; 343: pp. 66-75) Bis/Tris HCl 25 mM pH 7.0 containing 0.1 mg/mL of BSA (buffer […] at 0.25 mM in DMSO. Mother solution of enzyme in buffer A (Mouse sEH at 6 μg/mL and Human sEH at 5 μg/mL). Inhibitor dissolved in DMSO at the appropriate concentration. In a black 96 well plate, fill all the wells with 150 μL of buffer A. Add 2 μL of DMSO in well A2 and A3, and then add 2 μL of inhibitor solution in A1 and A4 through A12. Add 150 μL of buffer A in row A, then mix several time and transfer 150 μL to row B. Repeat this operation up to row H. The 150 μL removed from row H is discarded. Add 20 μL of buffer A in column 1 and 2, then add 20 μL of enzyme solution to column 3 to 12. Incubate the plate for 5 minutes in the plate reader at 30° C. During incubation prepare the working solution of substrate by mixing 3.68 mL of buffer A (4×0.920 mL) with 266 μL (2×133 μL) of substrate solution). At t=0, add 30 μL of working substrate solution with multi-channel pipette labeled “Briggs 303” and start the reading ([S]final: 5 μM). Read with ex: 330 nm (20 nm) and em: 465 nm (20 nm) every 30 second for 10 minutes. The velocities are used to analyze and calculate the IC50s. Tables 4-6 show the activity of compounds when tested with the assay at 50, 500, 5000, 50000, and 500000 nM.

| SMILES | % Inhibition (Concentration 5000 nM) [%] | also measured |
| --- | --- | --- |
| O=C(Nc1cccc(OCCCN2CCOCC2)c1)C(O)c1ccc(C(F)(F)F)cc1 (stereo not shown) [Compound 101, 2-Hydroxy-N-[3-(3-morpholin-4-yl-propoxy)-phenyl]-2-(4-trifluoromethyl-phenyl)-acetamide] | 95 | – |
| O=C(Nc1ccc(OCc2ccccc2)cc1)C(O)CCc1ccc(C(F)(F)F)cc1 (stereo not shown) [Compound 130] | 89 | – |
| Cc1ccc(S(=O)(=O)N2CCC(NC(=O)C(=O)C34CC5CC(CC(C5)C3)C4)CC2)cc1 [Compound 18, 2-Adamantan-1-yl-2-oxo-N-[1-(toluene-4-sulfonyl)-piperidin-4-yl]-acetamide] | 93 | – |
| O=C(NCC12CC3CC(CC(C3)C1)C2)C(O)c1ccc(C(F)(F)F)cc1 (stereo not shown) [Compound 121, N-Adamantan-1-ylmethyl-2-hydroxy-2-(4-trifluoromethyl-phenyl)-acetamide] | 91 | – |
| COC(=O)CCCCCCCCCCCNC(=O)C(O)CCc1ccc(C(F)(F)F)cc1 (stereo not shown) [Compound 162, Methyl 12-(2-hydroxy-4-(4-(trifluoromethyl)phenyl)butanamido)dodecanoate] | – | % Inhibition (Concentration 500 nM): 78% |
| O=C(Nc1ccc(-n2ccnc2)cc1)C(=O)C1CCCCC1 [Compound 11, 2-Cyclohexyl-N-(4-imidazol-1-yl-phenyl)-2-oxo-acetamide] | – | % Inhibition (Concentration 50000 nM): 80% |
| O=C(Nc1ccc(OCc2ccccc2)cc1)C(O)C12CC3CC(CC(C3)C1)C2 (stereo not shown) [Compound 118, 2-Adamantan-1-yl-N-(4-benzyloxy-phenyl)-2-hydroxy-acetamide] | 95 | – |
| O=C(Nc1cccc(OCc2ccccc2)c1)C(O)CCc1ccc(C(F)(F)F)cc1 (stereo not shown) [Compound 131] | 98 | – |
| O=C(NC1CCN(S(=O)(=O)c2ccc(Cl)cc2)CC1)C(O)CCC12CC3CC(CC(C3)C1)C2 (stereo not shown) [Compound 152, N-(1-(4-Chlorophenylsulfonyl)piperidin-4-yl)-4-adamantyl-2-hydroxybutanamide] | 98 | – |
| O=C(NCCc1ccc(OCc2ccccc2)cc1)C(O)CCC12CC3CC(CC(C3)C1)C2 (stereo not shown) [Compound 129, 4-Adamantan-1-yl-N-[2-(4-benzyloxy-phenyl)-ethyl]-2-hydroxy-butyramide] | – | % Inhibition (Concentration 50 nM): 70% |
| Cc1ccc(S(=O)(=O)N2CCC(NC(=O)C(O)CC34CC5CC(CC(C5)C3)C4)CC2)cc1 (stereo not shown) [Compound 128, 3-Adamantan-1-yl-2-hydroxy-N-[1-(toluene-4-sulfonyl)-piperidin-4-yl]-propionamide] | – | % Inhibition (Concentration 500 nM): 89% |
| Cc1ccc(S(=O)(=O)N2CCC(NC(=O)C(=O)C3CCCCC3)CC2)cc1 [Compound 10, 2-Cyclohexyl-2-oxo-N-[1-(toluene-4-sulfonyl)-piperidin-4-yl]-acetamide] | 70 | – |
| O=C(NCCc1ccc(OCc2ccccc2)cc1)C(O)CCc1ccc(C(F)(F)F)cc1 (stereo not shown) [Compound 139, N-(4-(Benzyloxy)phenethyl)-2-hydroxy-4-(4-(trifluoromethyl)phenyl)butanamide] | 70 | – |
| O=C(CC12CC3CC(CC(C3)C1)C2)C(=O)Nc1cccc(OCc2ccccc2)c1 [Compound 15, 3-Adamantan-1-yl-N-(3-benzyloxy-phenyl)-2-oxo-propionamide] | 86 | – |
| O=C(Nc1cccc(OCc2ccccc2)c1)C(=O)c1ccc(C(F)(F)F)cc1 [Compound 5, N-(3-Benzyloxy-phenyl)-2-oxo-2-(4-trifluoromethyl-phenyl)-acetamide] | 71 | – |
| Cc1ccc(S(=O)(=O)N2CCC(NC(=O)C(O)C34CC5CC(CC(C5)C3)C4)CC2)cc1 (stereo not shown) [Compound 124, 2-Adamantan-1-yl-2-hydroxy-N-[1-(toluene-4-sulfonyl)-piperidin-4-yl]-acetamide] | – | % Inhibition (Concentration 500 nM): 80% |
| O=C(Nc1ccc(OCc2ccccc2)cc1)C(O)CCC12CC3CC(CC(C3)C1)C2 (stereo not shown) [Compound 143, N-(4-(Benzyloxy)phenyl)-4-adamantan-1-yl-2-hydroxybutanamide] | 99 | – |

| SMILES | % Inhibition (Concentration 5000 nM) [%] | also measured |
| --- | --- | --- |
| O=C(CC12CC3CC(CC(C3)C1)C2)C(=O)NCCc1ccc(OCc2ccccc2)cc1 [Compound 24] | 87 | – |
| COC1CCC(NC(=O)C(O)c2ccc(C(F)(F)F)cc2)CC1 (stereo not shown) [Compound 104, 2-Hydroxy-N-(4-methoxy-cyclohexyl)-2-(4-trifluoromethyl-phenyl)-acetamide] | – | % Inhibition (Concentration 50000 nM): 79% |
| O=C(Nc1cccc(OCc2ccccc2)c1)C(O)CC1CCCCC1 (stereo not shown) [Compound 126, N-(3-Benzyloxy-phenyl)-3-cyclohexyl-2-hydroxy-propionamide] | 78 | – |
| O=C(O)CCCCCCCCCCCNC(=O)C(O)CCC12CC3CC(CC(C3)C1)C2 (stereo not shown) [Compound 165, 12-(4-Adamantan-1-yl-2-hydroxybutanamido)dodecanoic acid] | 86 | – |
| O=C(NCCc1ccc(Oc2ccccc2)cc1)C(O)CCC12CC3CC(CC(C3)C1)C2 (stereo not shown) [Compound 151, 4-Adamantan-1-yl-2-hydroxy-N-(4-phenoxyphenethyl)butanamide] | 90 | – |
| O=C(Nc1ccc(OCc2ccccc2)cc1)C(O)CC12CC3CC(CC(C3)C1)C2 (stereo not shown) [Compound 117, 3-Adamantan-1-yl-N-(4-benzyloxy-phenyl)-2-hydroxy-propionamide] | – | % Inhibition (Concentration 50000 nM): 81% |
| O=C(NCCc1ccc(OCc2ccccc2)cc1)C(O)CCC1CCCCC1 (stereo not shown) [Compound 141, N-(4-(Benzyloxy)phenethyl)-4-cyclohexyl-2-hydroxybutanamide] | 91 | – |
| O=C(Nc1ccc(-n2ccnc2)cc1)C(=O)C12CC3CC(CC(C3)C1)C2 [Compound 21] | 93 | – |
| CCCC(=O)N1CCC(NC(=O)C(=O)C2CCCCC2)CC1 [Compound 16, N-(1-Butyryl-piperidin-4-yl)-2-cyclohexyl-2-oxo-acetamide] | – | % Inhibition (Concentration 50000 nM): 62% |
| CCCC(=O)N1CCC(NC(=O)C(O)c2ccc(C(F)(F)F)cc2)CC1 (stereo not shown) [Compound 114, N-(1-Butyryl-piperidin-4-yl)-2-hydroxy-2-(4-trifluoromethyl-phenyl)-acetamide] | – | % Inhibition (Concentration 50000 nM): 74% |
| O=C(Nc1cccc(OCc2ccccc2)c1)C(O)C1CCCCC1 (stereo not shown) [Compound 113, N-(3-Benzyloxy-phenyl)-2-cyclohexyl-2-hydroxy-acetamide] | 66 | – |
| COC(=O)CCCCCCCCCCCNC(=O)C(O)c1ccc(C(F)(F)F)cc1 (stereo not shown) [Compound 158, Methyl 12-(2-hydroxy-2-(4-(trifluoromethyl)phenyl)acetamido)dodecanoate] | – | % Inhibition (Concentration 500 nM): 72% |
| O=C(CC12CC3CC(CC(C3)C1)C2)C(=O)Nc1ccc(OCc2ccccc2)cc1 [Compound 17, 3-Adamantan-1-yl-N-(4-benzyloxy-phenyl)-2-oxo-propionamide] | 64 | – |
| O=C(Nc1cccc(OCc2ccccc2)c1)C(O)CC12CC3CC(CC(C3)C1)C2 (stereo not shown) [Compound 115, 3-Adamantan-1-yl-N-(3-benzyloxy-phenyl)-2-hydroxy-propionamide] | – | % Inhibition (Concentration 500 nM): 89% |
| Cc1ccc(S(=O)(=O)N2CCC(NC(=O)C(O)Cc3ccc(C(F)(F)F)cc3)CC2)cc1 (stereo not shown) [Compound 142, 2-Hydroxy-N-(1-tosylpiperidin-4-yl)-3-(4-(trifluoromethyl)phenyl)propanamide] | – | % Inhibition (Concentration 50000 nM): 84% |
| O=C(Nc1cccc(OCc2ccccc2)c1)C(=O)C1CCCCC1 [Compound 12, N-(3-Benzyloxy-phenyl)-2-cyclohexyl-2-oxo-acetamide] | – | % Inhibition (Concentration 50000 nM): 99% |
| O=C(Cc1ccc(OCc2ccccc2)cc1)C(=O)NC12CC3CC(CC(C3)C1)C2 [Compound 7, N-Adamantan-1-yl-3-(4-benzyloxy-phenyl)-2-oxo-propionamide] | 75 | – |
